{"source": "patent US10034886B2", "about": "“GLP-1 receptor modulators” (Celgene International II SÀRL, priority 2014, dated 2018)", "data": [{"molecular_target": "T1, GLP-1R (Homo sapiens, UniProt P43220)", "T1 construct": "host or cells: GLP-1R CRE-bla CHO-K1 cells", "T1 sequence (P43220 24-463)": "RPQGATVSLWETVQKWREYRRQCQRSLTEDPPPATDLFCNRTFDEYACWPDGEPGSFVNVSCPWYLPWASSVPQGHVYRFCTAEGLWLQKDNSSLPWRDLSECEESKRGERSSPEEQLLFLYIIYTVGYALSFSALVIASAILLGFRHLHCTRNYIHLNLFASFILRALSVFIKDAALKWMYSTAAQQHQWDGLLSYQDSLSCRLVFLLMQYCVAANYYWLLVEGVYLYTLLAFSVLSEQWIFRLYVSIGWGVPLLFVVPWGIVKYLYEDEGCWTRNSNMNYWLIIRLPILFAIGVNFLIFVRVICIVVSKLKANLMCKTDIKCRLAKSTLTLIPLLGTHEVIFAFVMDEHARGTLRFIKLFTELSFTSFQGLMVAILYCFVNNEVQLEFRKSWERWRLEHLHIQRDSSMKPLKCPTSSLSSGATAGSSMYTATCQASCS", "T1 sequence (P01275 100-127 partner limits assumed)": "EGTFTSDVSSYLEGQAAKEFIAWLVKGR", "assay": "EC20 GLP-1(9-36) PAM cAMP assay: dose response of compound in the presence of fixed concentration of GLP-1(9-36)", "assay_type": "cell-based", "conditions": "EC20 GLP-1(9-36) PAM EC50, dose response of compound in presence of fixed concentration of GLP-1(9-36), GLP-1R CRE-bla CHO-K1 cells", "outline": "(§1)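 Positive allosteric modulation read as cAMP accumulation: compound titrations (12 points) combined with an EC20 level of GLP-1(9-36) on CHO-K1 GLP-1R CRE-bla cells, IBMX present, 30 min, 37 °C, pH 7.4 buffer. Luminescence converted to cAMP via standards; non-linear fit gave EC50 and Emax.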", "units": {"EC50": "µM"}, "values": [{"smiles": "CCCCCCCOc1ccc(-c2cnc(-c3ccc(C[C@H](NC(=O)c4ccc(C(C)(C)C)s4)C(=O)N4CC[C@H](c5nnn[nH]5)C4)cc3)nc2)cc1", "note": "[Compound 886]", "EC50": "0.8 to 2.5"}]}, {"molecular_target": "T1, GLP-1R", "assay": "EC20 GLP-1(9-36) PAM cAMP assay: dose response of compound in the presence of fixed concentration of GLP-1(9-36)", "assay_type": "cell-based", "conditions": "GLP-1R CRE-bla CHO-K1 cells, compound dose response with fixed concentration of GLP-1(9-36), read-out: EC20 GLP-1(9-36) PAM EC50", "outline": "as §1", "units": {"EC50": "µM"}, "values": [{"smiles": "CCc1ccc(-c2ccc(-c3cnc(-c4ccc(C[C@H](NC(=O)c5ccc(C(C)(C)C)s5)C(=O)N[C@H](C)C(=O)O)cc4)nc3)cc2)cc1", "note": "[Compound 1286]", "EC50": "< 0.8"}, {"smiles": "Cc1ccccc1C1CCN(c2cnc(-c3ccc(C[C@H](NC(=O)c4ccc(C(C)(C)C)s4)C(=O)N4CC(C(=O)O)C4)cc3)nc2)CC1", "note": "[Compound 1475]", "EC50": "< 0.8"}, {"smiles": "CC(C)(C)c1ccc(C(=O)NC(Cc2ccc(-c3ncc(N4CCC(c5ccccc5F)CC4)cn3)cc2)C(=O)N2CC(C(=O)O)C2)s1", "note": "(centres unmarked) [Compound 1491]", "EC50": "0.8 to 2.5"}, {"smiles": "CCC[C@H]1CC[C@H](C2CCN(c3cnc(-c4ccc(C[C@H](NC(=O)c5ccc(C(C)(C)C)s5)C(=O)N5CC(F)(C(=O)O)C5)cc4)nc3)CC2)CC1", "note": "[Compound 1451]", "EC50": "0.8 to 2.5"}, {"smiles": "CCCCc1ccc(-c2ccc(-c3cnc(-c4ccc(C[C@H](NC(=O)c5ccc(C(C)(C)C)s5)C(=O)N5CC(C(=O)O)C5)cc4)nc3)c(F)c2)cc1", "note": "[Compound 1226, (S)-1-(2-(5-(tert-butyl)thiophene-2-carboxamido)-3-(4-(5-(4′-butyl-3-fluoro-[1,1′-biphenyl]-4-yl)pyrimidin-2-yl)phenyl)propanoyl)azetidine-3-carboxylic acid]", "EC50": "< 0.8"}, {"smiles": "C[C@@H](NC(=O)[C@H](Cc1ccc(-c2ncc(/C=C/c3ccc(F)cc3F)cn2)cc1)NC(=O)c1ccc(C(C)(C)C)s1)C(=O)O", "note": "[Compound 1255]", "EC50": "2.5 to 5"}, {"smiles": "C[C@@H](NC(=O)[C@H](Cc1ccc(-c2ncc(/C=C/CCCc3ccccc3)cn2)cc1)NC(=O)c1ccc(C(C)(C)C)s1)C(=O)O", "note": "[Compound 1247]", "EC50": "0.8 to 2.5"}, {"smiles": "C[C@@H](NC(=O)[C@H](Cc1ccc(-c2ncc(-c3ccc(-c4ccccc4)c(F)c3)cn2)cc1)NC(=O)c1ccc(C(C)(C)C)s1)C(=O)O", "note": "[Compound 1289]", "EC50": "< 0.8"}, {"smiles": "CC[C@H]1CC[C@H](c2ccc(-c3cnc(-c4ccc(C[C@H](NC(=O)c5ccc(C(C)(C)C)s5)C(=O)O)cc4)nn3)cc2)CC1", "note": "[Compound 1336, (S)-2-(5-(tert-butyl)thiophene-2-carboxamido)-3-(4-(6-(4-((1r,4r)-4-ethylcyclohexyl)phenyl)-1,2,4-triazin-3-yl)phenyl)propanoic acid]", "EC50": "2.5 to 5"}, {"smiles": "CCC[C@H]1CC[C@H](c2ccc(-c3cnc(-c4ccc(C[C@H](NC(=O)c5ccc(C(C)(C)C)s5)C(=O)N5CC(C(=O)O)C5)cc4)nc3)cc2)CC1", "note": "[Compound 1343, 1-((S)-2-(5-(tert-butyl)thiophene-2-carboxamido)-3-(4-(5-(4-((1s,4r)-4-propylcyclohexyl)phenyl)pyrimidin-2-yl)phenyl)propanoyl)azetidine-3-carboxylic acid]", "EC50": "< 0.8"}, {"smiles": "CC[C@H]1CC[C@H](c2ccc(-c3cnc(-c4ccc(C[C@H](NC(=O)c5ccc(C(C)(C)C)s5)C(=O)N[C@H](C(=O)O)[C@@H](C)O)cc4)nc3)cc2)CC1", "note": "[Compound 1327]", "EC50": "< 0.8"}, {"smiles": "CC(C)(C)c1ccc(C(=O)N[C@@H](Cc2ccc(-c3ncc(N4CCC(c5ccc(Cl)cc5)CC4)cn3)cc2)C(=O)N2CC(C(=O)O)C2)s1", "note": "[Compound 1478]", "EC50": "0.8 to 2.5"}, {"smiles": "Cc1ccc(-c2ccc(-c3cnc(-c4ccc(C[C@H](NC(=O)c5ccc(C(C)(C)C)s5)C(=O)N5CC(C(=O)O)C5)cc4)nc3)c(F)c2)c(F)c1", "note": "[Compound 1204]", "EC50": "< 0.8"}, {"smiles": "C[C@@H](NC(=O)[C@H](Cc1ccc(-c2ncc(-c3ccc(-c4ccccc4)cc3F)cn2)cc1)NC(=O)c1ccc(C(C)(C)C)s1)C(=O)O", "note": "[Compound 1318]", "EC50": "< 0.8"}, {"smiles": "COc1ccc(C2CCN(c3cnc(-c4ccc(C[C@H](NC(=O)c5ccc(C(C)(C)C)s5)C(=O)N5CC(C(=O)O)C5)cc4)nc3)CC2)cc1", "note": "[Compound 1425]", "EC50": "0.8 to 2.5"}]}, {"molecular_target": "T1, GLP-1R", "assay": "EC20 GLP-1(9-36) PAM cAMP assay: dose response of compound in the presence of fixed concentration of GLP-1(9-36)", "assay_type": "cell-based", "conditions": "dose response of compound in presence of fixed concentration of GLP-1(9-36), GLP-1R CRE-bla CHO-K1 cells, read-out: EC20 GLP-1(9-36) PAM EC50", "outline": "as §1", "units": {"EC50": "µM"}, "values": [{"smiles": "Cc1ccc(-c2ccc(-c3cnc(-c4ccc(C[C@H](NC(=O)c5ccc(C(C)(C)C)s5)C(=O)N[C@H](C)C(=O)O)cc4)nc3)cc2F)cc1", "note": "[Compound 1139]", "EC50": "< 0.8"}, {"smiles": "CCCCCCCOc1ccc(-c2cnc(-c3ccc(C[C@H](NC(=O)c4ccc(C(C)(C)C)cc4C)C(=O)N4CC[C@H](C(=O)O)C4)cc3)nc2)cc1", "note": "[Compound 868]", "EC50": "0.8 to 2.5"}, {"smiles": "CCCCCCCOc1ccc(-c2cnc(-c3ccc(C[C@H](NC(=O)c4ccc(C(C)(C)C)s4)C(=O)N[C@H](C(=O)O)[C@@H](O)c4ccccc4)cc3)nc2)cc1", "note": "[Compound 665]", "EC50": "0.8 to 2.5"}, {"smiles": "CCCCCCCOc1ccc(-c2cnc(-c3ccc(C[C@H](NC(=O)c4ccc(C(C)(C)C)s4)C(=O)N[C@@H](CC(=O)N[C@@H](C)C(=O)O)C(=O)O)cc3)nc2)cc1", "note": "[Compound 516]", "EC50": "< 0.8"}, {"smiles": "CCCCCCCOc1ccc(-c2cnc(-c3ccc(C[C@H](NC(=O)c4ccc(C(C)(C)C)s4)C(=O)NC4(C(=O)O)CCCC4)cc3)nc2)cc1", "note": "[Compound 395]", "EC50": "0.8 to 2.5"}, {"smiles": "CCCOc1ccc(-c2cnc(-c3ccc(C[C@H](NC(=O)c4ccc(C(C)(C)C)s4)C(=O)NC(C(=O)O)C(O)c4ccccc4)cc3)nc2)cc1", "note": "(some centres unmarked) [Compound 933]", "EC50": "5 to 10"}, {"smiles": "CCCCCCCOc1ccc(-c2cnc(-c3ccc(C[C@H](NC(=O)c4ccc(C(C)(C)C)cc4)C(=O)NC(Cc4ccccc4)C(=O)O)cc3)nc2)cc1", "note": "(some centres unmarked) [Compound 561]", "EC50": "< 0.8"}, {"smiles": "CCCCCCCOc1ccc(-c2cnc(-c3ccc(C[C@H](NC(=O)c4ccn(C(C)(C)C)c4)C(=O)N[C@H](C)C(=O)O)cc3)nc2)cc1", "note": "[Compound 838]", "EC50": "0.8 to 2.5"}, {"smiles": "CCCCCCCOc1ccc(-c2cnc(-c3ccc(C[C@H](NC(=O)c4ccc(C(C)(C)C)cc4)C(=O)NCC(Cc4cccnc4)C(=O)O)cc3)nc2)cc1", "note": "(some centres unmarked) [Compound 557]", "EC50": "< 0.8"}, {"smiles": "CCCCCCCOc1ccc(-c2cnc(-c3ccc(C[C@H](NC(=O)c4ccc(C(C)(C)C)cc4)C(=O)N[C@@H](CCCN)C(=O)O)cc3)nc2)cc1", "note": "[Compound 469]", "EC50": "0.8 to 2.5"}, {"smiles": "CC(C)(C)c1ccc(C(=O)N[C@@H](Cc2ccc(-c3ncc(-c4ccc(OCC5CCC(C(C)(C)C)CC5)cc4)cn3)cc2)C(=O)NCCC(=O)O)cc1", "note": "(some centres unmarked) [Compound 803]", "EC50": "0.8 to 2.5"}, {"smiles": "CCCCCCCOc1ccc(-c2cnc(-c3ccc(C[C@H](NC(=O)c4ccc(C(C)(C)C)cc4)C(=O)N4CCC(C(=O)O)CC4)cc3)nc2)cc1", "note": "[Compound 578]", "EC50": "2.5 to 5"}, {"smiles": "CCCCCCCOc1ccc(-c2cnc(-c3ccc(C[C@H](NC(=O)c4ccc(C(C)(C)C)s4)C(=O)N[C@@H](CC(=O)Nc4nnn[nH]4)C(=O)O)cc3)nc2)cc1", "note": "[Compound 522]", "EC50": "0.8 to 2.5"}, {"smiles": "CCCCCCCOc1ccc(-c2cnc(-c3ccc(C[C@H](NC(=O)c4ccc(CC)s4)C(=O)N4CC(C(=O)O)C4)cc3)nc2)cc1", "note": "[Compound 1110]", "EC50": "0.8 to 2.5"}, {"smiles": "CCCCCOc1ccc(-c2cnc(-c3ccc(C[C@H](NC(=O)c4ccc(C(C)(C)C)s4)C(=O)N[C@H](C)C(=O)O)cc3)nc2)cc1", "note": "[Compound 734]", "EC50": "0.8 to 2.5"}, {"smiles": "CC(C)(C)c1ccc(-c2cnc(-c3ccc(C[C@H](NC(=O)c4ccc(C(C)(C)C)s4)C(=O)NC(C(=O)O)C(O)c4ccccc4)cc3)nc2)cc1", "note": "(some centres unmarked) [Compound 932]", "EC50": "2.5 to 5"}, {"smiles": "CC(C)(C)CCCOc1ccc(-c2cnc(-c3ccc(C[C@H](NC(=O)c4ccc(C(C)(C)C)s4)C(=O)NC(C(=O)O)C(O)c4ccccc4)cc3)nc2)cc1", "note": "(some centres unmarked) [Compound 937]", "EC50": "0.8 to 2.5"}, {"smiles": "CCCCCCCOc1ccc(-c2cnc(-c3ccc(C[C@H](NC(=O)c4ccc(C(C)(C)C)s4)C(=O)NC(C(=O)O)C(O)c4cccnc4)cc3)nc2)cc1", "note": "(some centres unmarked) [Compound 907]", "EC50": "0.8 to 2.5"}, {"smiles": "COc1ccc2cc(-c3cnc(-c4ccc(C[C@H](NC(=O)c5ccc(C(C)(C)C)s5)C(=O)N[C@H](C)C(=O)O)cc4)nc3)ccc2c1", "note": "[Compound 997]", "EC50": "5 to 10"}]}]}
